# Test results as given in US20190315823A1, “SMALL CATIONIC ANTI-BIOFILM AND IDR PEPTIDES” (priority 2013, published 2019).
# Peptide text beside a SMILES is read from it.
# Legend:
# [1] = system: Pseudomonas aeruginosa (Pa) biofilm; assay: static abiotic solid surface (microtiter, crystal violet) / Bioflux biofilm inhibition screen; type: cell-based; conditions: peptide 10 μg/ml
# Summary of the method: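 Overnight cultures diluted 1/100 were grown in polypropylene microtiter plates in BM2 medium (pH 7, 0.4% glucose, 0.5% Casamino Acids) or Luria Broth, with peptide at varying concentrations added at time zero. After 22-46 h, adherent biofilm was stained with crystal violet and read at 595 nm. Selected peptides were also screened under flow in a Bioflux system.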
# [2] = system: Klebsiella pneumoniae (Kp) biofilm; type: cell-based; conditions: peptide 10 μg/ml
# Method: Methods of assessment of anti-biofilm activity—Biofilm formation was initially analyzed using a static abiotic solid surface assay as described elsewhere (de la Fuente-Nunez et al., 2012). Dilutions (1/100) of overnight cultures were incubated in BM2 biofilm-adjusted medium [62 mM potassium phosphate buffer (pH 7), 7 mM (NH4)2SO4, 2 mM MgSO4, 10 μM FeSO4, 0.4% (wt/vol) glucose, 0.5% (wt/vol) Casamino Acids], or a nutrient medium such as Luria Broth, in polypropylene microtiter plates (Falcon, United States) in the absence (control) or presence of peptide. Peptide was added at time zero (prior to adding the diluted, overnight cultures) in varying concentrations, and the decrease in biofilm formation was recorded at 22-46 h for most bacteria. Planktonic cells were removed, biofilm cells adhering to the side of the tubes were stained with crystal violet, and absorbance at 595 nm was measured using a microtiter plate reader (Bio-Tek Instruments Inc., United States). Some peptides were screened against two Gram negative organisms, P. aeruginosa and K. pneumoniae using a Bioflux apparatus (AutoMate Scientific, Berkeley, Calif.; http://www.autom8.com/bioflux_biofilm.html), which allows for the high-throughput, real-time analysis of biofilms.
# [3] = system: methicillin resistant S. aureus (Sa) biofilm; type: cell-based, Staphylococcus aureus; conditions: peptide 5 μg/ml
# P. aeruginosa biofilm = type: cell-based; conditions: concentration that reduced biofilm growth by 50%
# S. aureus biofilm = type: cell-based; conditions: concentration that reduced biofilm growth by 50%
# P. aeruginosa biofilms = conditions: compound alone; P. aeruginosa
# Method: Peptides and various conventional antibiotics were analyzed by checkerboard titration into microtiter trays using CLSI methods (Wiegand, I., K. Hilpert, and R. E. W. Hancock. 2008. Nature Protocols 3:163-175), bacteria added and, after overnight incubation at 37° C., the residual biofilm assessed by the crystal violet method mentioned in the body of the grant, with an A595 of 0.2 considered as 100% biofilm inhibition. The effects of the peptide in reducing the minimal biofilm inhibitory concentration (MBIC) of the antibiotic and vice versa were assessed using the Fractional Inhibitory Concentration (FIC) method whereby ΣFTC=FICA+FICB=(CA/MICA)+(CB/MICB), where MBICA and MBICB are the MBICs of peptide A and antibiotic B alone, respectively, and CA and CB (expressed in μg/ml) are the MICs of the drugs in combination. This conventional clinical microbiology assay is interpreted as follows
# C. elegans = C. elegans survival, uninfected (peptide toxicity); conditions: peptide 20 μg/ml
# Method: The C. elegans survival assay was carried out as previously described (Brackman et al., 2011). […] 0.5 ml of this suspension of nematodes was transferred to the wells of a 24-well microtiter plate. An overnight bacterial culture was centrifuged, resuspended in the assay medium, and standardized to 10^8 CFU/ml. Next, 250 μl of this standardized suspension were added to each well, while 250 μl of sterile medium was added to the […]. Peptides were added to the test wells at a final concentration of 20 μg/ml. The assay plates were incubated at 25° C. for up to 2 days. The fraction of dead worms was determined by counting the number of dead worms and the total number of worms in each well, using a dissecting microscope. Peptides were tested at least four times in each assay, and each assay was repeated at least three times (n≥12).
# G. mellonella = G. mellonella survival, uninfected (peptide toxicity); type: in vivo; conditions: peptide 20 μg/10 μl
# Method: In brief, prior to injection in G. mellonella, bacterial cells were washed with PBS and then diluted to either 10^4 or 10^5 CFU per 10 μl. A Hamilton syringe was used to inject 10 μl in the G. mellonella last left proleg. The peptides (20 μg/10 μl) were administered by injecting 10 μl into a different proleg within 1 h after injecting the bacteria. Two control groups were used: the first group included uninfected larvae injected with PBS to monitor killing due to physical trauma; the second group included uninfected larvae receiving no treatment at all. Results from experiments in which one or more larvae in either control group died were discarded and the experiments were repeated. To evaluate the toxicity of the peptides, uninfected larvae were injected with peptides. Larvae were placed in the dark at 37° C. and were scored as dead or alive 24 h and 48 h post-infection. […] At least 20 larvae were injected for each treatment. For each treatment, data from at least six independent experiments were combined.
# [4] = system: Pseudomonas aeruginosa (Pa) biofilm; conditions: P. aeruginosa; de la Fuente-Núñez 2012; cited from earlier work
# P. aeruginosa = conditions: de la Fuente-Núñez 2012; cited from earlier work
# [5] = system: human peripheral blood mononuclear cells; type: cell-based
# Method: FIG. 18. Lack of cytotoxicity of immunomodulatory peptides against human peripheral blood mononuclear cells as determined by the low release of cytosolic lactate dehydrogenase.
# Venous blood (20 ml) from healthy volunteers was collected in Vacutainer® collection tubes containing sodium heparin as an anticoagulant (Becton Dickinson, Mississauga, ON) in accordance with UBC ethical approval and guidelines. Blood was diluted 1:1 with complete RPMI 1640 medium and separated by centrifugation over a Ficoll-Paque® Plus (Amersham Biosciences, Piscataway, N.J., USA) density gradient. White blood cells were isolated from the buffy coat, washed twice in RPMI 1640 complete medium, and the number of peripheral blood mononuclear cells (PBMC) was determined by Trypan blue exclusion. PBMC (5×10^5) were seeded into 12-well tissue culture dishes (Falcon; Becton Dickinson) at 0.75 to 1×10^6 cells/ml at 37° C. in 5% CO2. The above conditions were chosen to mimic conditions for circulating blood monocytes entering tissues at the site of infection via extravasation.
# Following incubation of the cells under various treatment regimens, the tissue culture supernatants were centrifuged at 1000×g for 5 min, then at 10,000×g for 2 min to obtain cell-free samples. […]
# Cytotoxicity was assessed using the Lactate dehydrogenase assay. […] Amount of colour formed is detected as increased absorbance measured at […]. […]
smiles,measurement,setting,value
CC[C@H](C)[C@H](NC(=O)[C@H](CCCNC(=N)N)NC(=O)[C@@H](NC(=O)[C@H](C)NC(=O)[C@@H](NC(=O)[C@@H](NC(=O)[C@H](CC(C)C)NC(=O)[C@H](CCCNC(=N)N)NC(=O)[C@@H](N)C(C)C)[C@@H](C)CC)C(C)C)C(C)C)C(=O)N[C@@H](Cc1c[nH]c2ccccc12)C(=O)N[C@@H](CCCNC(=N)N)C(=O)N[C@@H](CCCNC(=N)N)C(N)=O [Peptide 1018] (H-VRLIVAVRIWRR-NH2),% Biofilm Inhibition Pa,[1],99%
same,% Biofilm Inhibition Kp,[2],99%
same,% Biofilm Inhibition Sa,[3],67%
same,MBIC50 P. aeruginosa,P. aeruginosa biofilm,2.5 µg/mL
same,MBIC50 S. aureus,S. aureus biofilm,20 µg/mL
same,Minimal Biofilm Inhibitory Concentration (MBIC),P. aeruginosa biofilms,24 µg/mL
same,"C. elegans survival, No infection",C. elegans; 24 h,97 ± 4%
same,"C. elegans survival, No infection",C. elegans; 48 h,88 ± 9%
same,"G. mellonella survival, No infection",G. mellonella; 24 h,90 ± 14%
same,"G. mellonella survival, No infection",G. mellonella; 48 h,90 ± 14%
CC[C@H](C)[C@H](NC(=O)[C@H](CCCNC(=N)N)NC(=O)[C@H](Cc1ccccc1)NC(=O)[C@H](CCCNC(=N)N)NC(=O)[C@@H](N)CCCCN)C(=O)N[C@@H](CCCNC(=N)N)C(=O)N[C@H](C(=O)N[C@@H](CCCNC(=N)N)C(=O)N[C@H](C(N)=O)C(C)C)C(C)C [Peptide 1037] (H-KRFRIRVRV-NH2; N-terminus assumed),anti-biofilm activity IC50,[4],5 mg/L
same,antimicrobial activity MIC,P. aeruginosa,304 mg/L
CC[C@H](C)[C@H](NC(=O)[C@H](CC(C)C)NC(=O)[C@@H](NC(=O)[C@H](CCCNC(=N)N)NC(=O)[C@@H](NC(=O)[C@@H](NC(=O)[C@H](CCCNC(=N)N)NC(=O)[C@H](CCCNC(=N)N)NC(=O)[C@@H](N)C(C)C)[C@@H](C)CC)C(C)C)C(C)C)C(=O)N[C@@H](CCCNC(=N)N)C(=O)N[C@@H](Cc1c[nH]c2ccccc12)C(=O)N[C@@H](C)C(N)=O [HE8] (H-VRRIVRVLIRWA-NH2),Notes (toxicity),[5],Toxic
